Test results taken from patent US20100227856A1, “NOVEL COMPOUNDS” (SMITHKLINE BEECHAM CORPORATION, priority 2006, published 2010).
pEC50: −log10 of the molar value.

Target: T1, TRPV4 channel receptors (Bos taurus, UniProt A0A8F4X677)
T1 construct: obtained using this method in bovine articular chondrocytes; endogenous in cells; host or cells: bovine articular chondrocytes
Assay: Ca2+ influx in bovine articular chondrocytes (Fura-2 fluorescence, FlexStation)
Type: cell-based
Description: Ca^2+ influx mediated through TRPV4 channel receptors can be measured using articular chondrocytes from such species as, but not limited to, human, rat, canine, rabbit, monkey, and bovine, using standard techniques in the art such as, but not limited to, Fura-2 (Invitrogen/Molecular Probes, Eugene, Oreg.) fluorescence using a FlexStation (manufactured by Molecular Devices, Sunnyvale, Calif.). Table 1 lists biological data for several representative compounds obtained using this method in bovine articular chondrocytes.

T1 sequence (A0A8F4X677 1-871): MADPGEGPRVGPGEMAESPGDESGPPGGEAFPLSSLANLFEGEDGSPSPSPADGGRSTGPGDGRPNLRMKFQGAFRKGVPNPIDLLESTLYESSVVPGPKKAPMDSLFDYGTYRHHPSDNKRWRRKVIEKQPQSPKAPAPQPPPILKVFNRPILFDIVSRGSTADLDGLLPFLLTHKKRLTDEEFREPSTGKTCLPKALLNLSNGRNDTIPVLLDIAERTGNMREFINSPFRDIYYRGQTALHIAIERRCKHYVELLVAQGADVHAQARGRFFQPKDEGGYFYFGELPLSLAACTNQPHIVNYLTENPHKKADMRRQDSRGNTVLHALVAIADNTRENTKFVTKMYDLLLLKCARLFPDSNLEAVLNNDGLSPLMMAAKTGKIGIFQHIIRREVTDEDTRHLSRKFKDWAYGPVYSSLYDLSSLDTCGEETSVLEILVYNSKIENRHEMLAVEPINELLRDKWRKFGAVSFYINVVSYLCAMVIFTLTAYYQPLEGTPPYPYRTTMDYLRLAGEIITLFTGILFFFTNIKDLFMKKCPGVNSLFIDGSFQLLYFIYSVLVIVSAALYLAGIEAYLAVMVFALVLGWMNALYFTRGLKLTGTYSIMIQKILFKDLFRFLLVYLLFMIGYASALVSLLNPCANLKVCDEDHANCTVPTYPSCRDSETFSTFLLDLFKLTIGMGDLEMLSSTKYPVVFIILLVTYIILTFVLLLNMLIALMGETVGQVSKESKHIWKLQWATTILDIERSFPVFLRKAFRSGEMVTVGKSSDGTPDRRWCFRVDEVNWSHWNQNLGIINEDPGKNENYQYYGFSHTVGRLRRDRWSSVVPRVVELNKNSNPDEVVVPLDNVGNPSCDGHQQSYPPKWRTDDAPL

| pEC50 | Compound |
| --- | --- |
| 7.00 to 8.00 | CC(C)C[C@H](NC(=O)c1cc2ccccc2s1)C(=O)NCCC1CCCCN1S(=O)(=O)c1ccc(Cl)cc1Cl (stereo partly drawn) [Example 3, N-((1S)-1-{[(2-{1-[(2,4-Dichlorophenyl)sulfonyl]-2-piperidinyl}ethyl)amino]carbonyl}-3-methylbutyl)-1-benzothiophene-2-carboxamide] |
| 5.70 to 6.96 | CC(C)C[C@H](NC(=O)c1cc2ccccc2s1)C(=O)NCC1CCCCN1S(=O)(=O)c1ccccc1C#N (stereo partly drawn) [Example 1, N-((1S)-1-{[({1-[(2-cyanophenyl)sulfonyl]-2-piperidinyl}methyl)amino]carbonyl}-3-methylbutyl)-1-benzothiophene-2-carboxamide] |
